Experimental data: US10294202B2, “Pyrrolidinones as herbicides” (FMC Corporation, priority 2013, dated 2019)

Assays:
corn = assay: Test A pre-/postemergence herbicide test; format: in vivo, Zea mays; conditions: Postemergence
How it was run: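 Scoring was visual, relative to untreated controls, on a 0–100 scale after about 10 greenhouse days. Preemergence treatment used a directed soil spray over seeded loam/sand; postemergence treatment targeted one- to two-leaf plants of 2–10 cm.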

blackgrass = assay: Test C pre-/postemergence herbicide test; format: in vivo, Alopecurus myosuroides
Text: (§1) Seeds of plant species selected from blackgrass (Alopecurus myosuroides), ryegrass, Italian (Italian ryegrass, Lolium multiflorum), wheat (winter wheat, Triticum aestivum), galium (catchweed bedstraw, Galium aparine), corn (Zea mays), crabgrass, large (large crabgrass, Digitaria sanguinalis), foxtail, giant (giant foxtail, Setaria faberii), johnsongrass (Sorghum halepense), lambsquarters (Chenopodium album), morningglory (Ipomoea coccinea), nutsedge, yellow (yellow nutsedge, Cyperus esculentus), pigweed (Amaranthus retroflexus), ragweed (common ragweed, Ambrosia elatior), soybean (Glycine max), barnyardgrass (Echinochloa crus-galli), oilseed rape (Brassica napus), waterhemp (common waterhemp, Amaranthus rudis), kochia (Kochia scoparia), oat, wild (wild oat, Avena fatua), surinam grass (Brachiaria decumbens), foxtail, green (green foxtail, Setaria viridis), goosegrass (Eleusine indica), bromegrass, downy (downy bromegrass, Bromus tectorum), nightshade (eastern black nightshade, Solanum ptycanthum), cocklebur (common cocklebur, Xanthium strumarium), cupgrass, woolly (woolly cupgrass, Eriochloa villosa), bermudagrass (Cynodon dactylon), sunflower, (common oilseed sunflower, Helianthus annuus), Russian thistle (Salsola kali) and velvetleaf (Abutilon theophrasti) were planted into a blend of loam soil and sand and treated preemergence with test chemicals formulated in a non-phytotoxic solvent mixture which included a surfactant. At the same time, plants selected from these crop and weed species and also barley (winter barley, Hordeum vulgare), […]), chickweed (common chickweed, Stellaria media), deadnettle (henbit deadnettle, Lamium amplexicaule), and canarygrass (littleseed canarygrass, Phalaris minor) were planted in pots containing Redi-Earth® planting medium (Scotts Company, 14111 Scottslawn Road, Marysville, Ohio 43041) comprising spaghnum peat moss, vermiculite, wetting agent and starter nutrients and treated with postemergence applications of test chemicals formulated in the same manner. Plants ranged in height from 2 to 18 cm (1- to 4-leaf stage) for postemergence treatments. Treated plants and controls were maintained in a greenhouse for 13 to 15 days, after which time all species were compared to controls and visually evaluated. Plant response ratings, summarized in Table C, are based on a scale of 0 to 100 where 0 is no effect and 100 is complete control. A dash (-) response means no test result.

ryegrass, Italian = assay: Test C pre-/postemergence herbicide test; format: in vivo, Lolium multiflorum
Text: as §1

crabgrass, large = assay: Test C pre-/postemergence herbicide test; format: in vivo, Digitaria sanguinalis
How it was run: (§2)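 Response scores range from 0, meaning no effect, to 100, meaning complete control, assigned visually by comparison with controls roughly two weeks (13 to 15 days) after spraying. Applications were made preemergence to seeded loam–sand soil and postemergence to 1- to 4-leaf plants.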

soybean = assay: Test C pre-/postemergence herbicide test; format: in vivo, Glycine max
Text: as §1

oilseed rape = assay: Test C pre-/postemergence herbicide test; format: in vivo, Brassica napus
Text: as §1

waterhemp = assay: Test C pre-/postemergence herbicide test; format: in vivo, Amaranthus rudis
Text: as §1

velvetleaf = assay: Test C pre-/postemergence herbicide test; format: in vivo, Abutilon theophrasti
How it was run: as §2

[1] = Postemergence, 8 g ai/ha, scale 0 to 100 (0 no effect, 100 complete control)
[2] = Postemergence, 16 g ai/ha, scale 0 to 100 (0 no effect, 100 complete control)
[3] = Postemergence, 31 g ai/ha, scale 0 to 100 (0 no effect, 100 complete control)
[4] = Postemergence, 62 g ai/ha, scale 0 (no effect) to 100 (complete control)
[5] = Preemergence, 31 g ai/ha, scale 0 to 100, 0 is no effect and 100 is complete control
[6] = Preemergence, 62 g ai/ha, scale 0 to 100 (0 no effect, 100 complete control)
[7] = Preemergence, 8 g ai/ha, scale 0 to 100
[8] = Preemergence, 16 g ai/ha, scale 0 to 100

CN1CC(c2ccc(F)cc2)C(C(=O)Nc2cccc(F)c2F)C1=O (stereo not drawn) [Compound 271]
50: Blackgrass plant response rating (blackgrass; [6]) | Plant response rating, Crabgrass, Large (crabgrass, large; [7])
15: Plant response rating, Soybean (soybean; [3])
90: Plant response rating, Crabgrass, Large (crabgrass, large; [8])
95: Crabgrass, Large plant response rating (crabgrass, large; [5])
20: Plant response rating, Corn (corn; 125 g ai/ha, 0 to 100 scale, 0 is no effect, 100 is complete control) | Plant response rating, Oilseed Rape (oilseed rape; [4]) | Oilseed Rape plant response rating (oilseed rape; [6])
45: Plant response rating, Soybean (soybean; [2])
100: Crabgrass, Large plant response rating (crabgrass, large; [6])
5: Plant response rating, Crabgrass, Large (crabgrass, large; [3]) | Plant response rating, Crabgrass, Large (crabgrass, large; [4]) | Plant response rating, Soybean (soybean; [1]) | Plant response rating, Waterhemp (waterhemp; [4]) | Plant response rating, Velvetleaf (velvetleaf; [3]) | Plant response rating, Velvetleaf (velvetleaf; [4])
35: Waterhemp plant response rating (waterhemp; [6])
60: Plant response rating, Corn (corn; 500 g ai/ha, 0 to 100 scale (0 no effect, 100 complete control)) | Plant response rating, Soybean (soybean; [4])
10: Ryegrass, Italian plant response rating (ryegrass, Italian; [6]) | Velvetleaf plant response rating (velvetleaf; [6])
0: Plant response rating, Blackgrass (blackgrass; [1]) | Plant response rating, Blackgrass (blackgrass; [2]) | Plant response rating, Blackgrass (blackgrass; [3]) | Plant response rating, Blackgrass (blackgrass; [4]) | Blackgrass plant response rating (blackgrass; [5]) | Plant response rating, Blackgrass (blackgrass; [7]) | Plant response rating, Ryegrass, Italian (ryegrass, Italian; [1]) | Plant response rating, Ryegrass, Italian (ryegrass, Italian; [2]) | Plant response rating, Ryegrass, Italian (ryegrass, Italian; [3]) | Plant response rating, Ryegrass, Italian (ryegrass, Italian; [4]) | Ryegrass, Italian plant response rating (ryegrass, Italian; [5]) | Plant response rating, Ryegrass, Italian (ryegrass, Italian; [7]) | Plant response rating, Ryegrass, Italian (ryegrass, Italian; [8]) | Plant response rating, Crabgrass, Large (crabgrass, large; [1]) | Plant response rating, Crabgrass, Large (crabgrass, large; [2]) | Soybean plant response rating (soybean; [5]) | Soybean plant response rating (soybean; [6]) | Plant response rating, Soybean (soybean; [7]) | Plant response rating, Soybean (soybean; [8]) | Plant response rating, Oilseed Rape (oilseed rape; [1]) | Plant response rating, Oilseed Rape (oilseed rape; [2]) | Plant response rating, Oilseed Rape (oilseed rape; [3]) | Oilseed Rape plant response rating (oilseed rape; [5]) | Plant response rating, Oilseed Rape (oilseed rape; [7]) | Plant response rating, Oilseed Rape (oilseed rape; [8]) | Plant response rating, Waterhemp (waterhemp; [1]) | Plant response rating, Waterhemp (waterhemp; [2]) | Plant response rating, Waterhemp (waterhemp; [3]) | Waterhemp plant response rating (waterhemp; [5]) | Plant response rating, Waterhemp (waterhemp; [7]) | Plant response rating, Waterhemp (waterhemp; [8]) | Plant response rating, Velvetleaf (velvetleaf; [1]) | Plant response rating, Velvetleaf (velvetleaf; [2]) | Velvetleaf plant response rating (velvetleaf; [5]) | Plant response rating, Velvetleaf (velvetleaf; [7]) | Plant response rating, Velvetleaf (velvetleaf; [8])
